Measured values taken from KR20170021349A, “다양한 질병의 치료를 위한 jnk 신호 전달 경로의 세포 투과성 펩타이드 억제자의 새로운 용도” (자이겐 인플라메이션 리미티드, priority 2014, dated 2017).
“Also recorded” adds a separate entry of the source.

Legend:
[1] = tested on: Varicella Zoster Virus (VZV); assay: Plaque reduction assay against VZV in HFFs; type: cell-based; details: for VZV spread (pfu) ± SD: 24 h
[2] = tested on: female Sprague-Dawley rats; assay: Cyclophosphamide (CYP)-induced acute cystitis, intravesical treatment; type: in vivo, rat; details: 24 h after CYP
[3] = tested on: Hep G2 tumours in SWISS nude mice; assay: Orthotopic Hep G2 human liver carcinoma, dose/response; type: in vivo, mouse
Brown Norway rats = assay: Argon laser-induced choroidal neovascularization (ChNV), intravitreal; type: in vivo, rat
db/db mice = assay: db/db mouse model of type 2 diabetes; type: in vivo
primary macrophages = assay: Uptake into primary cultured macrophages (specific antibody); type: cell-based; details: Fig. 24
[4] = Previous open-label dose-escalation trial in post-surgery/post-trauma intraocular inflammation; type: in vivo, human; details: 45, 90, 450, 900 μg subconj., 20 patients
Wistar rats = assay: PAN-induced nephropathy, frequency of administration; type: in vivo, rat
Lewis rats = assay: Endotoxin-induced uveitis (EIU), duration of action after subconjunctival injection; type: in vivo, rat
[5] = 20 μg/eye, 1 day before induction

## NH2-DQSRPVQPFLNLTTPRKPRPPRRRQRRKKRG-COOH (H-DQSRPVQPFLNLTTPRKPRPPRRRQRRKKRG-OH; also: D-amino acids (positions not given here)) [XG-102]
[1]; 0.5 μM
  VZV spread (pfu) ± SD: 260 ± 53 pfu
[1]; 1.0 μM
  VZV spread (pfu) ± SD: 212 ± 48 pfu
[1]; 2.0 μM
  VZV spread (pfu) ± SD: 312 ± 79 pfu
[1]; interpolated from graph, read-out: EC50 (50% reduction of VZV yield)
  EC50: ~300 nM
[2]; 50 mg/mL i.ves.
  AUC 1-8 g (allodynia) vs vehicle: 현저하게 감소되었다
  AUC 8-60 g (hyperalgesia) vs vehicle: 감소되었다
  haemorrhage score: 통계적으로 현저한 것에 이르지는 않았다
  nociceptive scores vs vehicle: 현저하게 감소시켰다
  urinary bladder wall thickness: 현저하게 감소되었다
[2]; 50 mg/mL, 500 μL i.ves.
  nociceptive threshold vs vehicle: 현저하게 증가하였다
[3]; 0.1 mg/kg
  T/C: 123%
[3]; 0.1 mg/kg, 2 mice
  tumour mass in liver, per mouse sacrificed at D171 (microscopy): 간에 종양 (1.3cm); also recorded: 검출된 종양 없음
[3]; 0.1 mg/kg/inj i.v. Q4Dx4, vehicle 86
  mean survival time (as headed): 105 days
[3]; 1 mg/kg
  T/C: 161%
[3]; 1 mg/kg, 3 mice (2 without tumour)
  tumour mass in liver, per mouse sacrificed at D171 (microscopy): 검출된 종양 없음; also recorded: 간에 종양 (1.9cm)
[3]; 1 mg/kg/inj i.v. Q4Dx4
  mean survival time (as headed): 138 days
[3]; 5 mg/kg
  T/C: 137%
[3]; 5 mg/kg, 3 mice
  tumour mass in liver, per mouse sacrificed at D171 (microscopy): 검출된 종양 없음 검출된 종양 없음 검출된 종양 없음
[3]; 5 mg/kg/inj i.v. Q4Dx4
  mean survival time (as headed): 118 days
[3]; 0.1-5 mg/kg
  tolerance (body weight): 내약성이 우수함
Brown Norway rats; 300 μg/ml IVT D0,D7, day 14
  mean score of fluorescein leakage (mean ± SD): 2.4 ± 0.9
Brown Norway rats; 300 μg/ml IVT D0,D7, day 21
  mean score of fluorescein leakage (mean ± SD): 2.4 ± 0.8
Brown Norway rats; 300 μg/ml, day 14
  % spots with score 0: 7%
  % spots with score 1: 9%
  % spots with score 2: 18%
  % spots with score 3: 66%
Brown Norway rats; 300 μg/ml, day 14, p<0.05
  reduction % vs vehicle: 17%
Brown Norway rats; 300 μg/ml, day 21
  % spots with score 0: 5%
  % spots with score 1: 9%
  % spots with score 2: 32%
  % spots with score 3: 55%
  reduction % vs vehicle: -9%
Brown Norway rats; 3000 μg/ml IVT D0,D7, day 14
  mean score of fluorescein leakage (mean ± SD): 1.7 ± 0.7
Brown Norway rats; 3000 μg/ml IVT D0,D7, day 21
  mean score of fluorescein leakage (mean ± SD): 2.3 ± 0.7
Brown Norway rats; 3000 μg/ml, day 14
  % spots with score 0: 0%
  % spots with score 1: 44%
  % spots with score 2: 44%
  % spots with score 3: 12%
Brown Norway rats; 3000 μg/ml, day 14, p<0.001
  reduction % vs vehicle: 41%
Brown Norway rats; 3000 μg/ml, day 21
  % spots with score 0: 0%
  % spots with score 1: 14%
  % spots with score 2: 47%
  % spots with score 3: 40%
  reduction % vs vehicle: -5%
Brown Norway rats; both doses IVT
  general behaviour of animals: 변화되지 않는다
db/db mice; 1 mg/kg s.c. daily 28 days
  effect on fasting blood glucose: 효과가 관찰되지 않았다
db/db mice; 1 mg/kg, 28 days
  effect on body weight: 효과가 관찰되지 않았다
db/db mice; 10 mg/kg s.c. daily 21 days, persisted to day 111, p<0.001
  fasting blood glucose plateau: ~5 mmol/L
db/db mice; 10 mg/kg, day 111
  brain, spleen, heart weight: 현저한 효과가 관찰되지 않았다
  epididymal (p<0.05) and retroperitoneal (p<0.01) fat mass: 현저한 감소를 관찰했다
  kidney (p<0.05) and liver (p<0.01) mass: 현저한 감소가 관찰되었다
db/db mice; 10 mg/kg, days 57, 77, 108
  plasma insulin, MCP-1, IL-6, tPAI-1, TNF: 현저한 효과가 발견되지 않았으며
db/db mice; 10 mg/kg, days 77 and 108
  plasma resistin: 현저하게 높았다
db/db mice; 10 mg/kg, metabolic cages
  24 h food and water intake, urine and faeces production: 현저한 효과는 관찰되지 않았다
db/db mice; 10 mg/kg, from day 28 to 111
  body weight gain: 명확하고 현저한 예방
db/db mice; high dose, after about 2 weeks of dosing, progressed to open wounds, healed after end of dosing
  injection-site finding in subcutaneous tissue: 결절 섬유화가 발견되었고
Primary macrophages
  incorporation into primary macrophages: 강하게 병합된다
[4]
  safety and tolerability: 안정하고 내약성이 우수하다
Wistar rats; 4 mg/kg i.v. x1 (d21), day 49
  glomerular injury score (GIS): 1.53 ± 0.05
Wistar rats; 4 mg/kg i.v. x1 (d21), day 77, PAN/vehicle 1.39 ± 0.10
  glomerular injury score (GIS): 0.82 ± 0.04
Wistar rats; 4 mg/kg i.v. x1, day 77 (PAN/vehicle 91%)
  percentage of injured glomeruli: 69%
Wistar rats; 4 mg/kg i.v. x2 (d21, d35), day 49, P<0.01
  glomerular injury score (GIS): 1.26 ± 0.06
Wistar rats; 4 mg/kg i.v. x4 (weekly from d21), day 49, PAN/vehicle 1.50 ± 0.06
  glomerular injury score (GIS): 0.94 ± 0.05
Wistar rats; 4 mg/kg i.v. x4, day 49
  percentage of injured glomeruli: 76.9%
Wistar rats; 4 mg/kg i.v. x4, day 49 (PAN/vehicle 37%)
  mean % glomeruli with grade 1: 61%
Wistar rats; 4 mg/kg i.v. x4, day 49 (PAN/vehicle 46%)
  mean % glomeruli with grade 2: 15%
Lewis rats; 20 μg/eye subconj., day of induction, 24 h after LPS, vehicle 4.0 ± 0.2
  clinical score, mean ± SEM (n=20): 2.8 ± 0.2
Lewis rats; [5]
  clinical score, mean ± SEM (n=20): 1.6 ± 0.1
  clinical score, median: 1.5
  leukocytes in aqueous humor, mean ± SEM (n=20): 1668 ± 149 세포/μL
